Results reported in ChEMBL document CHEMBL1150972, “Biochemical and cellular effects of c-Src kinase-selective pyrido[2, 3-d]pyrimidine tyrosine kinase inhibitors” (Biochem Pharmacol, 2000).

Tests used:
[1] = target: Tyrosine-protein kinase Lck (Homo sapiens, UniProt P06239); test: Inhibition of Lck
SW-620 [2] = test: Inhibition of SW-620 clonogenic growth in soft agar with pretreatment; type: functional, cell-based; details: Homo sapiens
SW-620 [3] = test: Inhibition of SW-620 cell proliferation; type: functional, cell-based; details: Homo sapiens
HT-29 [4] = test: Inhibition of HT-29 clonogenic growth in soft agar without pretreatment; type: functional, cell-based; details: Homo sapiens
HCT-8 [5] = test: Inhibition of HCT-8 clonogenic growth in soft agar with pretreatment; type: functional, cell-based; details: Homo sapiens
HCT-8 [6] = test: Inhibition of HCT-8 clonogenic growth in soft agar without pretreatment; type: functional, cell-based; details: Homo sapiens
HT-29 [7] = test: Inhibition of HT-29 cell proliferation; type: functional, cell-based; details: Homo sapiens
HCT-8 [8] = test: Inhibition of HCT-8 cell proliferation; type: functional, cell-based; details: Homo sapiens
HT-29 [9] = test: Inhibition of HT-29 clonogenic growth in soft agar with pretreatment; type: functional, cell-based; details: Homo sapiens
[10] = target: Fibroblast growth factor receptor 1 (Homo sapiens, UniProt P11362); test: Inhibition of bFGFR
SW-620 [11] = test: Inhibition of SW-620 clonogenic growth in soft agar without pretreatment; type: functional, cell-based; details: Homo sapiens
Homo sapiens [12] = organism: Homo sapiens; test: Selectivity for c-Src compared to PDGFR
Homo sapiens [13] = organism: Homo sapiens; test: Selectivity for c-Src compared to bFGFR
[14] = target: Proto-oncogene tyrosine-protein kinase Src (Homo sapiens, UniProt P12931); test: Inhibition of c-Src
[15] = target: Platelet-derived growth factor receptor (Homo sapiens, UniProt P09619+P16234); test: Inhibition of PDGFR; type: protein-complex assay
[16] = target: Epidermal growth factor receptor (Homo sapiens, UniProt P00533)
NIH3T3 = test: Inhibition of 3H-thymidine incorporation into NIH3T3 cells; type: functional, cell-based; details: Mus musculus
A-431 = test: Inhibition of 3H-thymidine incorporation into A-431 cells; type: functional, cell-based; details: Homo sapiens

Fibroblast growth factor receptor 1, sequence (P11362 whole entry): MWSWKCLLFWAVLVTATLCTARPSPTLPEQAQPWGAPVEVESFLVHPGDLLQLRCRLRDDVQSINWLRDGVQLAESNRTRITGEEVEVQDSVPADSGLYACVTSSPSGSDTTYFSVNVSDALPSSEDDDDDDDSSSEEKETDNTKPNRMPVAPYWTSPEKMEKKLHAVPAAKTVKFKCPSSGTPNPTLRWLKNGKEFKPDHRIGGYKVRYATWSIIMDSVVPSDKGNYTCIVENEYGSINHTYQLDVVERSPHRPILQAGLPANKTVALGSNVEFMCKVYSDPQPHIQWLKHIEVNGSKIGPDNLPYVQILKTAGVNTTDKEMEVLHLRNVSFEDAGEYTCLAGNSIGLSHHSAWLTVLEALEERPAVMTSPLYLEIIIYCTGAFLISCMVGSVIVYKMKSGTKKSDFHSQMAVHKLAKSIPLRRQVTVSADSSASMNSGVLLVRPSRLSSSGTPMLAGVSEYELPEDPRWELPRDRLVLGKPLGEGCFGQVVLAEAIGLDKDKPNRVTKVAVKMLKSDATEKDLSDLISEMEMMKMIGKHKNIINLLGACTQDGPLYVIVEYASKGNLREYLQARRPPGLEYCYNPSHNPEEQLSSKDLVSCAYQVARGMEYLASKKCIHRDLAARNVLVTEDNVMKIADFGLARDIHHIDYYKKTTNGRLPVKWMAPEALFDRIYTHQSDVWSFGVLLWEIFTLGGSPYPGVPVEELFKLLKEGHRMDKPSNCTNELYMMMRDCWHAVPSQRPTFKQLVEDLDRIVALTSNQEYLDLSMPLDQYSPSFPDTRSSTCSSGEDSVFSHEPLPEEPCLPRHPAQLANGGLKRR
Proto-oncogene tyrosine-protein kinase Src, sequence (P12931 2-536 limits assumed): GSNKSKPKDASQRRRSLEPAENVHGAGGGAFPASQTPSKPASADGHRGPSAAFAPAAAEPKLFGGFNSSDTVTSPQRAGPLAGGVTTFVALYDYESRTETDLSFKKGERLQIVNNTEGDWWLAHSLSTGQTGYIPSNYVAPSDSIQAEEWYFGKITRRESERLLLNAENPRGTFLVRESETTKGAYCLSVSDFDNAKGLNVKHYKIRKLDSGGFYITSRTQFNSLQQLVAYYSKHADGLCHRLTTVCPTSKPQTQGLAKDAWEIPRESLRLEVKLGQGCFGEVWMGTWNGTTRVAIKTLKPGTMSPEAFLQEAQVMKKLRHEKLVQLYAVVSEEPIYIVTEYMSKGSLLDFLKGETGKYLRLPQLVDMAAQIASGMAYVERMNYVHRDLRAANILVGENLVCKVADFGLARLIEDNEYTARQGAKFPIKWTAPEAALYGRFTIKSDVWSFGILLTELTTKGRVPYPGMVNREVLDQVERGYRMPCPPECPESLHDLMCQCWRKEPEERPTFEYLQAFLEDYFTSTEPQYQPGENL
Tyrosine-protein kinase Lck, sequence (P06239 whole entry): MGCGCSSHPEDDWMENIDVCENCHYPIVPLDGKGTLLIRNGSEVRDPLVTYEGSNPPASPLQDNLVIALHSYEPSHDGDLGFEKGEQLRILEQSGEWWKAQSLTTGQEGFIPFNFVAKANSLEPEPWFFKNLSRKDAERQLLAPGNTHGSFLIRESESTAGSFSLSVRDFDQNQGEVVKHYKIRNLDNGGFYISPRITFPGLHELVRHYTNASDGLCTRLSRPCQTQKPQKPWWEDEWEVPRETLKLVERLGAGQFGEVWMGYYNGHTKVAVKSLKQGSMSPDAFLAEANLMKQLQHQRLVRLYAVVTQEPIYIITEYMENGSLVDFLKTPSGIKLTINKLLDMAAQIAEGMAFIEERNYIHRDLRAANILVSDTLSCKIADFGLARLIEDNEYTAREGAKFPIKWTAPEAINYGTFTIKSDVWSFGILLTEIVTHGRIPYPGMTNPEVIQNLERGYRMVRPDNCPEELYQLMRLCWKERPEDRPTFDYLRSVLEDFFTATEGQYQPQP
Epidermal growth factor receptor, sequence (P00533 whole entry): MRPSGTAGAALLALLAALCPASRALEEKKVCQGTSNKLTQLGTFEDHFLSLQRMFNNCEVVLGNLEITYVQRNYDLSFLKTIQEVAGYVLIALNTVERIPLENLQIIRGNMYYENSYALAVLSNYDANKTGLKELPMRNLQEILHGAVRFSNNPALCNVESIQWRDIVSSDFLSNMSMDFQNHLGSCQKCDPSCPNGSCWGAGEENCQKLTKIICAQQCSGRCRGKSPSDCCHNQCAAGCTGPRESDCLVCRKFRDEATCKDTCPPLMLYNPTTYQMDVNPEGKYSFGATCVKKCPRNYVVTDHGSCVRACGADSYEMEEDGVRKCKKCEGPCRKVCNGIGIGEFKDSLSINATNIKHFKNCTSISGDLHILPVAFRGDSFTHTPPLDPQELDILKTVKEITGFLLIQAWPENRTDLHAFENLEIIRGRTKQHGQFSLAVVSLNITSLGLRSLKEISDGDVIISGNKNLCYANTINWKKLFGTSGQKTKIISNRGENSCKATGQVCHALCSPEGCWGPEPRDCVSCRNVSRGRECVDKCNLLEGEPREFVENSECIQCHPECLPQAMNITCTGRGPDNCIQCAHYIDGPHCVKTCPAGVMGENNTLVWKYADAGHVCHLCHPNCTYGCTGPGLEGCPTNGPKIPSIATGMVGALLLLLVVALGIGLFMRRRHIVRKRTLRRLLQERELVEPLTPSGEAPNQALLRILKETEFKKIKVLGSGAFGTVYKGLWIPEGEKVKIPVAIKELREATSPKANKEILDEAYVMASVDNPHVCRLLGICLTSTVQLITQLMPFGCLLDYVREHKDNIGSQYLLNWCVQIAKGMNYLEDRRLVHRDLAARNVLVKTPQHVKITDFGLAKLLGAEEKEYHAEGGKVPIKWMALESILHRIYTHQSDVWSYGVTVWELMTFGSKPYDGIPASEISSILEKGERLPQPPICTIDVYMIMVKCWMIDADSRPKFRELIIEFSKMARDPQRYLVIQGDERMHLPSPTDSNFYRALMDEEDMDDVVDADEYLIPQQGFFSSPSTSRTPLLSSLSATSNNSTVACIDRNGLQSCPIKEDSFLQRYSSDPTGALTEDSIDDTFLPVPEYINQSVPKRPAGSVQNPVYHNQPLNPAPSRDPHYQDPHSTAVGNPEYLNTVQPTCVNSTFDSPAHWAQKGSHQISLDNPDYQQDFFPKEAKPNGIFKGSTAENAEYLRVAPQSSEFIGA

IC50 [1] [nM] | IC50 (SW-620 [2]) [nM] | IC50 (SW-620 [3]) [nM] | IC50 (HT-29 [4]) [nM] | IC50 (HCT-8 [5]) [nM] | IC50 (HCT-8 [6]) [nM] | IC50 (HT-29 [7]) [nM] | IC50 (HCT-8 [8]) [nM] | IC50 (HT-29 [9]) [nM] | IC50 [10] [nM] | IC50 (SW-620 [11]) [nM] | Ratio (Homo sapiens [12]) | Ratio (Homo sapiens [13]) | IC50 [14] [nM] | IC50 [15] [nM] | IC50 [16] [nM] | IC50 (A-431) [nM] | SMILES | IC50 (NIH3T3) [nM]
< 5 | 1130 | 924 | 1290 | 2520 | 1300 | 810 | 1130 | 1210 | 1250 | 980 | – | – | – | – | – | – | CSc1cccc(Nc2ncc3cc(-c4c(Cl)cccc4Cl)c(=O)n(C)c3n2)c1 | –
< 5 | – | 156 | < 5000 | > 5000 | > 5000 | 266 | 1000 | 1740 | 244 | – | 51.2 | 27 | 9.03 | 463 | – | – | CCN(CCOc1ccc(Nc2ncc3cc(-c4c(Cl)cccc4Cl)c(=O)n(C)c3n2)cc1)C(C)=O | –
< 5 | 1550 | 619 | 1540 | – | 1150 | 617 | 662 | 1530 | – | 402 | – | – | – | – | – | – | Cn1c(=O)c(-c2c(Cl)cccc2Cl)cc2cnc(Nc3ccc(F)cc3)nc21 | –
< 5 | – | 285 | 1520 | 610 | 260 | 461 | 450 | 464 | 934 | – | 84.9 | 55.6 | 16.8 | 1430 | 390 | 215 | Cc1cc(Nc2ncc3cc(-c4c(Cl)cccc4Cl)c(=O)n(C)c3n2)ccc1F | 170
< 5 | 460 | 660 | 1010 | 3220 | 1260 | 579 | 1150 | 750 | 451 | 360 | 144 | 27.7 | 16.3 | 2340 | – | 445 | CCOc1ccc(Nc2ncc3cc(-c4c(Cl)cccc4Cl)c(=O)n(C)c3n2)cc1 | 382

SMILES | IC50 [1] [nM] | IC50 (SW-620 [2]) [nM] | IC50 (SW-620 [3]) [nM] | IC50 (HT-29 [4]) [nM] | IC50 (HCT-8 [5]) [nM] | IC50 (HCT-8 [6]) [nM] | IC50 (HT-29 [7]) [nM] | IC50 (HCT-8 [8]) [nM] | IC50 (HT-29 [9]) [nM] | IC50 [10] [nM] | IC50 (SW-620 [11]) [nM] | Ratio (Homo sapiens [12]) | Ratio (Homo sapiens [13]) | IC50 [14] [nM] | IC50 [15] [nM] | IC50 [16] [nM] | IC50 (A-431) [nM] | IC50 (NIH3T3) [nM]
Cn1c(=O)c(-c2c(Cl)cccc2Cl)cc2cnc(Nc3ccc(N4CCOCC4)cc3)nc21 | < 5 | 530 | – | 1370 | 1380 | 1260 | – | – | 1210 | 98.8 | 470 | 76.2 | 11.8 | 8.35 | 636 | – | 245 | 170
